pIC50: −log10 of the molar value.
Molecular target: Human recombinant Histone Deacetylase 8 (HDAC8) (Homo sapiens (Human), UniProt Q9BY41)
Assay: HDAC8 Enzymatic Assay (HDAC-Glo I/II luminescence)
Assay type: biochemical
Conditions: class symbols, Table 14; read-out: HDAC8 IC50
Protocol: HDAC-Glo™ I/II Assay Kit was purchased from Promega Corporation (Madison, Wis.), including the following components: HDAC-Glo I/II Buffer (25 mM Tris buffer, pH 8.0, supplemented with 137 mM: NaCl, 2.7 mM KCl, 1% v/v Triton X-100 and 1 mM: MgCl2), luminogenic substrates Boc-GAK(Ac)-aminoluciferin (HDAC-Glo I/II substrate), proprietary developer reagent (containing trypsin). Human recombinant Histone Deacetylase 8 (HDAC8) was purchased from Enzo Life Sciences (Plymouth Meeting, Pa.).
The HDAC8 reaction was performed at room temperature in white 384-well polystyrene, flat-bottom microtiter plate (Greiner Bio-one, Monroe, N.C.) in a final volume of 20 μL. Test compounds were first diluted serially in DMSO and 100 nL were transferred to the plate wells by Echo 550 (Labcyte, Sunnyvale, Calif.) before the addition of other reaction components. The final concentration of DMSO in the assay was 0.5%. The HDAC-Glo I/II assay reagent was prepared by rehydration of lyophilized HDAC-Glo I/II substrate in 10 mL. HDAC-Glo I/II assay buffer followed with the addition of 10 μL of developer reagent. 10 uL of 3 nM HDAC8 in the HDAC-Glo I/II assay buffer were first dispensed into the microliter plate containing the compounds and incubated at room temperature for 30 min. The reactions were initiated with the addition of 10 uL HDAC-Glo I/II assay reagent with Multidrop (Thermo, Waltham, Mass.). The final concentration of HDAC8 and HDAC-Glo I/II substrate in the reaction were 1.5 nM and 50 μM, respectively. The assay plate was mixed for 1 min by orbital shaking (500 rpm) and centrifuged for 1 min at 1500 rpm. After 15 min at room temperature, luminescence signals were measured on TopCount (Perkin Elmer). Wells with no compound served as the positive controls and wells containing no HDAC8 were used as negative controls. IC50 determination was performed by fitting the curve of percentage control activity versus the log of the compound concentration using the GraphPad Prism 6.0 software.

Human recombinant Histone Deacetylase 8 (HDAC8), sequence (Q9BY41 whole entry): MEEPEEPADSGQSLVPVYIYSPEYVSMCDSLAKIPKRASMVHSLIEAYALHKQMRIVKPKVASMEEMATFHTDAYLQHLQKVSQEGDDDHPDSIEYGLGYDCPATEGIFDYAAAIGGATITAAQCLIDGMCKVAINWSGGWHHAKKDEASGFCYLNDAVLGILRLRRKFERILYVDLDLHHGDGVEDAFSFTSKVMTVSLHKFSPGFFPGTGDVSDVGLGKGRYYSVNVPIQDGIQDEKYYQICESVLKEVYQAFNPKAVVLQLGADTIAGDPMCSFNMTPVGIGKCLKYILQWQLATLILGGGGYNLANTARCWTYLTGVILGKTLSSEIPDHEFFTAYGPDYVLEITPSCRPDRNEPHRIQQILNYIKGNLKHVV

With Cc1cc2cn(C(Cc3ccccc3)C(=O)NO)nc2cc1Br (stereo not drawn) [Compound I-0039, 2-(6-bromo-5-methyl-2H-indazol-2-yl)-N-hydroxy-3-phenylpropanamide] the pIC50 was less than 6.30.
Cc1ccc2cn(C(Cc3ccccc3)C(=O)NO)nc2c1 (stereo not drawn) [Compound I-0040, N-hydroxy-2-(6-methyl-2H-indazol-2-yl)-3-phenylpropanamide] showed a pIC50 of less than 6.30.
O=C(NO)C(Cc1ccccc1)n1cnc2ccccc21 (stereo not drawn) [Compound I-0041, 2-(1H-benzo[d]imidazol-1-yl)-N-hydroxy-3-phenylpropanamide] gave a pIC50 of 6.30 to 6.70.
O=C(NO)C(Cc1ccccc1)n1ncc2cnccc21 (stereo not drawn) [Compound I-0042, N-hydroxy-3-phenyl-2-(1H-pyrazolo[4,3-c]pyridin-1-yl)propanamide] showed a pIC50 of 6.30 to 6.70.
For O=C(NO)C(Cc1ccccc1)n1cc2cnccc2n1 (stereo not drawn) [Compound I-0043, N-hydroxy-3-phenyl-2-(2H-pyrazolo[4,3-c]pyridin-2-yl)propanamide], the pIC50 was less than 6.30.
Work on Cn1cc(-c2ccc3nn(C(Cc4ccccc4)C(=O)NO)c(C#CC4CC4)c3c2)cn1 (stereo not drawn) [Compound I-0044, 2-(3-(cyclopropylethynyl)-5-(1-methyl-1H-pyrazol-4-yl)-2H-indazol-2-yl)-N-hydroxy-3-phenylpropanamide] yielded a pIC50 of 6.70 to 7.30.
With O=C(NO)C(Cc1ccccc1)n1nc2ccc(-c3cccnc3)cc2c1C#CC1CC1 (stereo not drawn) [Compound I-0045, 2-(3-(cyclopropylethynyl)-5-(pyridin-3-yl)-2H-indazol-2-yl)-N-hydroxy-3-phenylpropanamide] the pIC50 was 6.70 to 7.30.
With COc1ccc(-c2ccc3nn(C(Cc4ccccc4)C(=O)NO)c(C#CC4CC4)c3c2)cn1 (stereo not drawn) [Compound I-0046, 2-(3-(cyclopropylethynyl)-5-(6-methoxypyridin-3-yl)-2H-indazol-2-yl)-N-hydroxy-3-phenylpropanamide] the pIC50 was 6.30 to 6.70.
Cn1nccc1-c1ccc2cn(C(Cc3ccccc3)C(=O)NO)nc2c1 (stereo not drawn) [Compound I-0047, N-hydroxy-2-(6-(1-methyl-1H-pyrazol-5-yl)-2H-indazol-2-yl)-3-phenylpropanamide] was tested, and the pIC50 was 6.30 to 6.70.
In the case of CN1CCC(c2ccc3cn(C(Cc4ccccc4)C(=O)NO)nc3c2)CC1 (stereo not drawn) [Compound I-0048, N-hydroxy-2-(6-(1-methylpiperidin-4-yl)-2H-indazol-2-yl)-3-phenylpropanamide], the pIC50 was less than 6.30.
Cc1ccc2nn(C(Cc3ccccc3)C(=O)NO)cc2c1 (stereo not drawn) [Compound I-0049, N-hydroxy-2-(5-methyl-2H-indazol-2-yl)-3-phenylpropanamide] was tested, and the pIC50 was less than 6.30.
With O=C(NO)C(Cc1ccccc1)n1cc2cc(-c3ccncc3)ccc2n1 (stereo not drawn) [Compound I-0050, N-hydroxy-3-phenyl-2-(5-(pyridin-4-yl)-2H-indazol-2-yl)propanamide] the pIC50 was 6.30 to 6.70.
O=C(NO)C(Cc1ccccc1)n1cc2cc(-c3cncnc3)ccc2n1 (stereo not drawn) [Compound I-0051, N-hydroxy-3-phenyl-2-(5-(pyrimidin-5-yl)-2H-indazol-2-yl)propanamide] gave a pIC50 of 6.30 to 6.70.
O=C(NO)C(Cc1ccccc1)n1cc2ccc(N3CCCCC3)cc2n1 (stereo not drawn) [Compound I-0052, N-hydroxy-3-phenyl-2-(6-(piperidin-1-yl)-2H-indazol-2-yl)propanamide] was tested, and the pIC50 was less than 6.30.
With O=C(NO)C(Cc1ccccc1)n1cc2cncc(C#CC3CC3)c2n1 (stereo not drawn) [Compound I-0053, 2-(7-(cyclopropylethynyl)-2H-pyrazolo[4,3-c]pyridin-2-yl)-N-hydroxy-3-phenylpropanamide] the pIC50 was 6.30 to 6.70.
Compound O=C(NO)C(Cc1ccccc1)n1cc2cncc(I)c2n1 (stereo not drawn) [Compound I-0054, N-hydroxy-2-(7-iodo-2H-pyrazolo[4,3-c]pyridin-2-yl)-3-phenylpropanamide] has a pIC50 of less than 6.30.
Compound O=C(NO)C(Cc1ccccc1)n1ncc2c(Cl)nccc21 (stereo not drawn) [Compound I-0055, 2-(4-chloro-1H-pyrazolo[4,3-c]pyridin-1-yl)-N-hydroxy-3-phenylpropanamide] has a pIC50 of 6.30 to 6.70.
For O=C(NO)C(Cc1ccccc1)n1cc2c(Cl)nccc2n1 (stereo not drawn) [Compound I-0056, 2-(4-chloro-2H-pyrazolo[4,3-c]pyridin-2-yl)-N-hydroxy-3-phenylpropanamide], the pIC50 was less than 6.30.
For CN1CC=C(c2cccc3nn(C(Cc4ccccc4)C(=O)NO)cc23)CC1 (stereo not drawn) [Compound I-0057, N-hydroxy-2-(4-(1-methyl-1,2,3,6-tetrahydropyridin-4-yl)-2H-indazol-2-yl)-3-phenylpropanamide], the pIC50 was less than 6.30.
In the case of O=C(NO)C(Cc1ccccc1)n1cc2c(-c3ccncc3)cccc2n1 (stereo not drawn) [Compound I-0058, N-hydroxy-3-phenyl-2-(4-(pyridin-4-yl)-2H-indazol-2-yl)propanamide], the pIC50 was 6.30 to 6.70.
With O=C(NO)C(Cc1ccccc1)n1cc2c(N3CCOCC3)cccc2n1 (stereo not drawn) [Compound I-0059, N-hydroxy-2-(4-morpholino-2H-indazol-2-yl)-3-phenylpropanamide] the pIC50 was less than 6.30.
Compound O=C(NO)C(Cc1ccccc1)n1cc2c(-c3ccccc3)cccc2n1 (stereo not drawn) [Compound I-0060, N-hydroxy-3-phenyl-2-(4-phenyl-2H-indazol-2-yl)propanamide] has a pIC50 of less than 6.30.
Work on Cn1nccc1-c1cccc2nn(C(Cc3ccccc3)C(=O)NO)cc12 (stereo not drawn) [Compound I-0061, N-hydroxy-2-(4-(1-methyl-1H-pyrazol-5-yl)-2H-indazol-2-yl)-3-phenylpropanamide] yielded a pIC50 of 6.30 to 6.70.
With O=C(NO)C(Cc1ccccc1)n1cc2c(C3CC3)cccc2n1 (stereo not drawn) [Compound I-0062, 2-(4-cyclopropyl-2H-indazol-2-yl)-N-hydroxy-3-phenylpropanamide] the pIC50 was less than 6.30.
O=C(NO)C(Cc1ccccc1)n1cc2c(-c3cncnc3)cccc2n1 (stereo not drawn) [Compound I-0063, N-hydroxy-3-phenyl-2-(4-(pyrimidin-5-yl)-2H-indazol-2-yl)propanamide] was tested, and the pIC50 was 6.30 to 6.70.
With Cc1cccc2nn(C(Cc3ccccc3)C(=O)NO)cc12 (stereo not drawn) [Compound I-0064, N-hydroxy-2-(4-methyl-2H-indazol-2-yl)-3-phenylpropanamide] the pIC50 was less than 6.30.
Compound CN1CCC(c2cccc3nn(C(Cc4ccccc4)C(=O)NO)cc23)CC1 (stereo not drawn) [Compound I-0065, N-hydroxy-2-(4-(1-methylpiperidin-4-yl)-2H-indazol-2-yl)-3-phenylpropanamide] has a pIC50 of less than 6.30.
O=C(NO)C(Cc1ccccc1)n1cc2cccc(-c3ccccc3)c2n1 (stereo not drawn) [Compound I-0066, N-hydroxy-3-phenyl-2-(7-phenyl-2H-indazol-2-yl)propanamide] showed a pIC50 of less than 6.30.
Cn1nccc1-c1cccc2cn(C(Cc3ccccc3)C(=O)NO)nc12 (stereo not drawn) [Compound I-0067, N-hydroxy-2-(7-(1-methyl-1H-pyrazol-5-yl)-2H-indazol-2-yl)-3-phenylpropanamide] showed a pIC50 of 6.70 to 7.30.
O=C(NO)C(Cc1ccccc1)n1cc2cccc(Br)c2n1 (stereo not drawn) [Compound I-0068, 2-(7-bromo-2H-indazol-2-yl)-N-hydroxy-3-phenylpropanamide] was tested, and the pIC50 was 6.30 to 6.70.
For Cn1nccc1-c1nccc2c1cnn2C(Cc1ccccc1)C(=O)NO (stereo not drawn) [Compound I-0069, N-hydroxy-2-(4-(1-methyl-1H-pyrazol-5-yl)-1H-pyrazolo[4,3-c]pyridin-1-yl)-3-phenylpropanamide], the pIC50 was 6.70 to 7.30.
O=C(NO)C(Cc1ccccc1)n1ncc2c(-c3ccncc3)nccc21 (stereo not drawn) [Compound I-0070, N-hydroxy-3-phenyl-2-(4-(pyridin-4-yl)-1H-pyrazolo[4,3-c]pyridin-1-yl)propanamide] showed a pIC50 of 6.70 to 7.30.
Compound O=C(NO)C(Cc1ccccc1)n1ncc2c(-c3cncnc3)nccc21 (stereo not drawn) [Compound I-0071, N-hydroxy-3-phenyl-2-(4-(pyrimidin-5-yl)-1H-pyrazolo[4,3-c]pyridin-1-yl)propanamide] has a pIC50 of 6.70 to 7.30.
Cn1nccc1-c1ccc2c(cnn2C(Cc2ccccc2)C(=O)NO)n1 (stereo not drawn) [Compound I-0072, N-hydroxy-2-(5-(1-methyl-1H-pyrazol-5-yl)-1H-pyrazolo[4,3-b]pyridin-1-yl)-3-phenylpropanamide] was tested, and the pIC50 was 6.30 to 6.70.
Work on O=C(NO)C(Cc1ccccc1)n1ncc2nc(-c3ccncc3)ccc21 (stereo not drawn) [Compound I-0073, N-hydroxy-3-phenyl-2-(5-(pyridin-4-yl)-1H-pyrazolo[4,3-b]pyridin-1-yl)propanamide] yielded a pIC50 of 6.30 to 6.70.
Compound O=C(NO)C(Cc1ccccc1)n1ncc2nc(-c3cncnc3)ccc21 (stereo not drawn) [Compound I-0074, N-hydroxy-3-phenyl-2-(5-(pyrimidin-5-yl)-1H-pyrazolo[4,3-b]pyridin-1-yl)propanamide] has a pIC50 of 6.70 to 7.30.
Cc1ccc2c(cnn2C(Cc2ccccc2)C(=O)NO)n1 (stereo not drawn) [Compound I-0075, N-hydroxy-2-(5-methyl-1H-pyrazolo[4,3-b]pyridin-1-yl)-3-phenylpropanamide] was tested, and the pIC50 was 6.30 to 6.70.
O=C(NO)C(Cc1ccccc1)n1ncc2nc(Cl)ccc21 (stereo not drawn) [Compound I-0076, 2-(5-chloro-1H-pyrazolo[4,3-b]pyridin-1-yl)-N-hydroxy-3-phenylpropanamide] was tested, and the pIC50 was 6.70 to 7.30.
O=C(NO)C(Cc1ccccc1)n1cc2nc(Cl)ccc2n1 (stereo not drawn) [Compound I-0077, 2-(5-chloro-2H-pyrazolo[4,3-b]pyridin-2-yl)-N-hydroxy-3-phenylpropanamide] gave a pIC50 of less than 6.30.

— patent US10723705B2, “Heterocyclic compounds and uses thereof” (Incyte Corporation, priority 2015, dated 2020)
